Values of other authors, collected in publication PMC10272271, “MAM-2201 acute administration impairs motor, sensorimotor, prepulse inhibition, and memory functions in mice: a comparison with its analogue AM-2201” (Psychopharmacology, 2023).

What was measured:
CD-1 male mice [1] = test system: CD-1 male mice; parameters: method as in Bilel et al. ([2020]); settings: i.p., value ± SEM, elaborated from earlier data, ref Bilel et al. ([2020]); cited from earlier work
CD-1 male mice [2] = test system: CD-1 male mice; parameters: method as in Bilel et al. ([2020]); settings: i.p., value ± SEM, elaborated from earlier data, ref Bilel et al. ([2020]); cited from earlier work; remark: listed apart in the source

O=C(c1cccc2ccccc12)c1cn(CCCCCF)c2ccccc12 [AM-2201, 1-[(5-Fluoropentyl)-1H-indol-3-yl](1-naphthylenyl) methanone]
ED50 (mg/kg), Visual object (CD-1 male mice [1]): 1.976 ± 0.063 mg/kg
ED50 (mg/kg), Overall tactile (CD-1 male mice [2]): 2.120 ± 0.013 mg/kg
